Measurements taken from patent publication US20210046084A1, “TREATMENT OF ADVANCED ESTROGEN RECEPTOR POSITIVE BREAST CANCER” (ESTETRA SPRL, priority 2018, published 2021).
Read-outs that look alike come from different tables or passages of the source.

Assays:
[1] = target: T1, SHBG (Homo sapiens, UniProt P04278); settings: cited from earlier work
T1 sequence (P04278 30-402): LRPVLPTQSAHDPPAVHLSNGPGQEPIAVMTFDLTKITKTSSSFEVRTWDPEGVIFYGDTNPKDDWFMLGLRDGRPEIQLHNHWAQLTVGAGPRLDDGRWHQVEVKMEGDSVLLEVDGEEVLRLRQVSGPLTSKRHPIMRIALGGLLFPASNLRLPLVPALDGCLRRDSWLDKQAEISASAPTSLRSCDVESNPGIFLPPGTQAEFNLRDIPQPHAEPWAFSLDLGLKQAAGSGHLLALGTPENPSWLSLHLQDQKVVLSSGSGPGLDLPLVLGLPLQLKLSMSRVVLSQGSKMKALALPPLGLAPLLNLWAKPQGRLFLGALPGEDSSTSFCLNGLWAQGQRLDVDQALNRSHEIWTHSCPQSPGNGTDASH

[2] = system: ER+ locally advanced and/or metastatic breast cancer; assay: Phase I/IIa dose-escalation study of E4 in advanced breast cancer (patient of Example 4); format: in vivo, human; settings: 20 mg E4 per day oral, 12 weeks
Method: An open-label, phase I/11a trial, dose-escalation study with a 3+3 cohort design is carried out to determine the recommended dose of E4 for the treatment of patients with advanced breast cancer. After completing the phase I part of the study (i.e. 4 weeks of treatment), patients receive further treatment for 8 weeks at their individual phase I dose level (phase IIa part of the study). Patients are treated for 12 weeks. Treatment continues after 12 weeks of treatment until the patient is withdrawn from the study either due to unacceptable adverse events (AEs) or disease progression. These patients are followed up according to clinical practice including radiological tumour assessments.
In total at least 9 patients with ER+ locally advanced and/or metastatic breast cancer having exhausted all treatment options are enrolled in the study. Patients are at least 5 years postmenopausal and have failed anti-estrogen treatment with tamoxifen and aromatase inhibitor because the cancer has become resistant to treatment with tamoxifen or aromatase inhibitor, or because the patient has discontinued treatment due to unacceptable side-effects. No treatment with fulvestrant is allowed within 6 months prior to the start of the E4 treatment.
• to assess quality of life in advanced breast cancer patients treated with E4, using specific questions on estrogen deficiency symptoms; • to assess preliminary anti-tumour response of E4 in patients with advanced breast cancer, according to RECIST 1.1 at the end of the study (i.e. after 12 weeks); • to assess the trough (Cmin) levels of E4 in patients with advanced breast cancer, by measuring E4 plasma concentrations before dosing at different time points during the study.
• to evaluate the safety profile of E4 in patients with advanced breast cancer by: • Performing routine laboratory parameters; • Performing physical examination; • Measuring vital signs; • Measuring electrocardiograms (ECGs); • Recording and monitoring of incidence and severity of clinical AEs and SAEs; • Radiological tumour assessments.
After completing the phase I part of the study (i.e. 4 weeks of treatment), patients receive further treatment for 8 weeks at their individual phase I dose level (phase IIa part of the study). The phase IIa part of the study includes explorative efficacy assessments to evaluate potential anti-tumour effects of E4 by RECIST criteria based on evaluation of pre- and end of treatment imaging.
Treatment is escalated in doses of 20 mg, 40 mg and 60 mg E4 across cohorts according to the 3+3 design until the non-tolerable dose is determined or the maximum anticipated dose (MAD) of 60 mg is reached. Patients are treated once daily with an oral administration of E4. […]

[3] = Plasma levels and tolerability of estetrol after daily oral administration in female patients; format: in vivo, human; settings: for Trough plasma level: average of Day 7 and Day 14; for Cmax: human, plasma, read-out: Cmax plasma level
Method: For each group dosed at 2, 10, 20 and 40 mg estetrol daily (oral administration), 9 to 10 female patients were tested for their plasma content in estetrol at Day 7 and at Day 14. For each dose group, the average trough level of all patients across both days was calculated.

[4] = system: long term estrogen deprived MCF7 breast cancer cells (LTED cells); assay: Growth of long term estrogen deprived MCF7 cells, cell count analysis; format: cell-based; settings: for Cell number per well: LTED cells, count on Day 7, control 5.36
Method: In order to assess the potential of an estetrol component to inhibit the growth of estrogen deprived breast cancer cells, in vitro studies in long term estrogen deprived MCF7 breast cancer cells (LTED cells) were conducted. LTED cells are deprived of estrogen, making them a suitable in vitro model to study drug effects in women who have been using estrogen activity suppressors for a long time.
LTED cells were plated in 6-well plates at a density of 30,000 cells per well. The cells were maintained in phenol red free IMEM with 5% charcoal stripped FBS (DCC-FBS). On Day 3, the medium was replaced with fresh phenol red free IMEM with 5% DCC-FBS. The cells were then exposed to 6 different concentrations of estetrol ranging from 10^−12 M to 10^−7 M or to ethanol as vehicle control. The final vehicle concentration was 0.1% ethanol for all experiments. Each treatment was made in duplicate.
On Day 5, the medium was changed and on Day 7 plates were subjected to a cell count analysis.

Question: Which results are given for `C[C@]12CC[C@@H]3c4ccc(O)cc4CC[C@H]3[C@@H]1[C@@H](O)[C@@H](O)[C@@H]2O` [estetrol, estra-1,3,5(10)-triene-3,15α,16α,17β-tetrol]?
Answer: Binding to SHBG [1]: does not bind to SHBG; Effect on quality of life (QOL) [2]: advantageous effect; Adverse event considered related to treatment ([2]; only one related AE, patient): breast tenderness with mild intensity; Tolerability of treatment ([2]; patient): tolerated the treatment very well; Tumour burden during treatment ([2]; progressive disease at start): remained stable; Trough plasma level ([3]; 2 mg daily oral dose): 240 pg/mL; Cmax plasma level ([3]; 10 mg daily oral dose): 9,500 pg/mL; Trough plasma level ([3]; 20 mg daily oral dose): 1,950 pg/mL; Trough plasma level ([3]; 40 mg daily oral dose): 5,070 pg/mL; Tolerability ([3]; 2, 10, 20 and 40 mg daily oral): well tolerated; Cmax ([3]; 2 mg daily oral dose): 1.3 ng/mL; Cmax ([3]; 20 mg daily oral dose): 23.5 ng/mL; Cmax ([3]; 40 mg daily oral dose): 82.7 ng/mL; Cell number per well ([4]; 10^−7 M estetrol): 0.49 ×10^5; Cell number per well ([4]; 10^−8 M estetrol): 0.59 ×10^5; Cell number per well ([4]; 10^−9 M estetrol): 0.56 ×10^5; Cell number per well ([4]; 10^−10 M estetrol): 0.63 ×10^5; Cell number per well ([4]; 10^−11 M estetrol): 3.62 ×10^5; Cell number per well ([4]; 10^−12 M estetrol): 5.58 ×10^5; Inhibition of growth of LTED cells ([4]; 10^−12 M to 10^−7 M): able to inhibit the growth of LTED cells; Concentration at which peak inhibition of LTED cell growth is observed ([4]; no further inhibition at higher concentrations): 10^−10 M

Question: Which “Binding to SHBG (affinity)” value ([1]; Hammond G L et al., Climacteric 2008) does the source give for `C[C@]12CC[C@@H]3c4ccc(O)cc4CC[C@H]3[C@@H]1CC[C@@H]2O` [estradiol, 17beta-estradiol, reference compound] here?
Answer: Its value is “about 40%”.
